# According to publication PMC5361737, “Potent and Selective KDM5 Inhibitor Stops Cellular Demethylation of H3K4me3 at Transcription Start Sites and Proliferation of MM1S Myeloma Cells” (Cell Chemical Biology, 2017):
# Like-named read-outs stand apart in the source and are kept apart here.
# What was measured:
# H2 (h) = H2 (h) (Homo sapiens, UniProt P25021); assay: Cerep Express Panel, antagonist radioligand; assay type: binding; details: read-out: % Inhibition of reference (10 µM)
# [1] = Liver microsomes stability; assay type: in vitro ADME; details: rat liver microsomes
# [2] = system: KDM5A and KDM5C (other KDM5 family members); assay: IF assay, HeLa cells overexpressing the other KDM5 family members; assay type: cell-based, human; details: overexpression IF assay, 24 hr, read-out: inhibitory concentration, other KDM5 family members
# Source text: The human cervical carcinoma cell line HeLa was obtained from the American Type Cultures Collection and maintained in Eagle's minimal essential media (Sigma-Aldrich) supplemented with 10% heat-inactivated fetal bovine serum (Life Technologies). Full-length cDNA for KDM5B (JARID1B, Q9UGL1, cDNA), KDM5C (JARID1C, P41229, IMAGE 5492114), KDM4B (JMJD2B, O94953, gift from ICR), KDM4C (JMJD2C, Q9H3R0, 8143862), KDM3A (JMJD1A, Q9Y4C1, 4823253), KDM2A (FBXL11, Q9Y2K7, 5534384), and KDM6B (JMJD3, O15054, cDNA) were amplified by PCR from either an MGC clone or a commercial cDNA source, or received as a gift from collaborators and cloned into pDONR-221 vector using Gateway BP reaction producing Gateway entry clones.
# […]. Mutations were introduced into full-length KDM Gateway entry clones using 15 cycles of the QuikChange II PCR protocol (Agilent Technologies). […]
# In brief, cells were transiently transfected with either the FLAG-tagged WT or mutant demethylase described above, using Lipofectamine 2000 (Life Technologies). […] After the DAPI-stained nuclei were automatically identified, a minimum threshold for anti-FLAG intensity was set so that only cells highly expressing the demethylase were analyzed. […]
# MT1 (ML1A) (h) = MT1 (ML1A) (h) (Homo sapiens, UniProt P48039); assay: Cerep Express Panel, agonist radioligand; assay type: binding; details: read-out: % Inhibition of reference (10 µM)
# Sequence of MT1 (ML1A) (h) (P48039 whole entry): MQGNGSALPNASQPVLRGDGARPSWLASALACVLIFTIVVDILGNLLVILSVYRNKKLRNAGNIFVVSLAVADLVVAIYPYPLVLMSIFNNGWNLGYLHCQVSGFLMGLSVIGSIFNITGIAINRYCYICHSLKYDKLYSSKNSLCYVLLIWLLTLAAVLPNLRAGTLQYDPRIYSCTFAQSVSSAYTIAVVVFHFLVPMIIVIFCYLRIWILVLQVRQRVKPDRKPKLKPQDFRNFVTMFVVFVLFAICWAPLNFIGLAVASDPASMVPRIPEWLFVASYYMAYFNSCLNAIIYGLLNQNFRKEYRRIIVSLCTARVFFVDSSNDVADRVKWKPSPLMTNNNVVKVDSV
# 5-HT1B = 5-HT1B (Rattus norvegicus, UniProt P28564); assay: Cerep Express Panel, antagonist radioligand; assay type: binding; details: read-out: % Inhibition of reference (10 µM)
# Sequence of 5-HT1B (P28564 whole entry): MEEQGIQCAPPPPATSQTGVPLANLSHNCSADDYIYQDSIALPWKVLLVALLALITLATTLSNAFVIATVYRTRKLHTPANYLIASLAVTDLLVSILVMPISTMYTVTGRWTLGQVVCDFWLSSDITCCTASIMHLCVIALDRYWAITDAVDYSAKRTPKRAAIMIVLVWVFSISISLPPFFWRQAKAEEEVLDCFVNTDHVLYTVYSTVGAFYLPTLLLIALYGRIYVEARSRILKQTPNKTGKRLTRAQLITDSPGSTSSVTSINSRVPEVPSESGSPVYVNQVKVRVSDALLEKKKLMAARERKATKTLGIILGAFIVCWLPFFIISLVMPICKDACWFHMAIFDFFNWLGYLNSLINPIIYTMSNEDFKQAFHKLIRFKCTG
# CB1 (h) = CB1 (h) (Homo sapiens, UniProt P21554); assay: Cerep Express Panel, agonist radioligand; assay type: binding; details: read-out: % Inhibition of reference (10 µM)
# Sequence of CB1 (h) (P21554 whole entry): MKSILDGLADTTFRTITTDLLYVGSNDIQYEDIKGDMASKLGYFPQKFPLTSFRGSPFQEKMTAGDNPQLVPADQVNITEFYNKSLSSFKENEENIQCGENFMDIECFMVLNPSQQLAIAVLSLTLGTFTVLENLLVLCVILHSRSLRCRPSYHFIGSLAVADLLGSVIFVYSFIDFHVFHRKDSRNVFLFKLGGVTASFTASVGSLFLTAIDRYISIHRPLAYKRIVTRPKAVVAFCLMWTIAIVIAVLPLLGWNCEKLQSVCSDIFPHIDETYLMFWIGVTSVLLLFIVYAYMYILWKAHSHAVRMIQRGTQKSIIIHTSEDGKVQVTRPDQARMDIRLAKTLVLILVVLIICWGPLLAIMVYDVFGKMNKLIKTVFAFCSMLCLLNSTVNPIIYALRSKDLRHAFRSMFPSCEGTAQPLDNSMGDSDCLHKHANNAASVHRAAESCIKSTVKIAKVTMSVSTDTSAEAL
# M2 (h) = M2 (h) (Homo sapiens, UniProt P08172); assay: Cerep Express Panel, antagonist radioligand; assay type: binding; details: read-out: % Inhibition of reference (10 µM)
# Sequence of M2 (h) (P08172 whole entry): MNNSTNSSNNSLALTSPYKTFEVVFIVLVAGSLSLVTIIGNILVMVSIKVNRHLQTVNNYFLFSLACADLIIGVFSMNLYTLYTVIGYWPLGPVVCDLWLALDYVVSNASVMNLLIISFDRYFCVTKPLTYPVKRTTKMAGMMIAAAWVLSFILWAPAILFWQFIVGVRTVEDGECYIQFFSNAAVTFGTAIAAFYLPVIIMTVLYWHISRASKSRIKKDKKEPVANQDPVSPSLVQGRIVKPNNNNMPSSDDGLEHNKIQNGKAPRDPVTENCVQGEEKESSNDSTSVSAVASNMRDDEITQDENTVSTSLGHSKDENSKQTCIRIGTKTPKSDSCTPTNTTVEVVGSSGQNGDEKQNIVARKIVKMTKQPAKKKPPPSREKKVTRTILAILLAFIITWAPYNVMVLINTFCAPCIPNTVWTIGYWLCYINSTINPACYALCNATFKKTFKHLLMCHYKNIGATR
# MC4 (h) = MC4 (h) (Homo sapiens, UniProt P32245); assay: Cerep Express Panel, agonist radioligand; assay type: binding; details: read-out: % Inhibition of reference (10 µM)
# Sequence of MC4 (h) (P32245 whole entry): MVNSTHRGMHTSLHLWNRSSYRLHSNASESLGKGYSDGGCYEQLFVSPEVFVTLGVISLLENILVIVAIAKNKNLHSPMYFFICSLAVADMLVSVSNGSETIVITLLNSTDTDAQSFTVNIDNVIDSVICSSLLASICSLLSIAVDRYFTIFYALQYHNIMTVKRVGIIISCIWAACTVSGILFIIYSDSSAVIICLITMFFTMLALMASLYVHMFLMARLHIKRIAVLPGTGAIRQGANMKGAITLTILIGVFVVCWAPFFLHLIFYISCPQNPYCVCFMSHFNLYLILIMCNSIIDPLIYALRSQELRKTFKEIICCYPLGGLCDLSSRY
# KDM2A = molecular target: T1, KDM2A (Homo sapiens, UniProt Q9Y2K7); assay: 2-Oxoglutarate oxygenase assay panel, AlphaScreen assay; assay type: biochemical; details: refers to Table S1
# T1 sequence (Q9Y2K7 1-1162): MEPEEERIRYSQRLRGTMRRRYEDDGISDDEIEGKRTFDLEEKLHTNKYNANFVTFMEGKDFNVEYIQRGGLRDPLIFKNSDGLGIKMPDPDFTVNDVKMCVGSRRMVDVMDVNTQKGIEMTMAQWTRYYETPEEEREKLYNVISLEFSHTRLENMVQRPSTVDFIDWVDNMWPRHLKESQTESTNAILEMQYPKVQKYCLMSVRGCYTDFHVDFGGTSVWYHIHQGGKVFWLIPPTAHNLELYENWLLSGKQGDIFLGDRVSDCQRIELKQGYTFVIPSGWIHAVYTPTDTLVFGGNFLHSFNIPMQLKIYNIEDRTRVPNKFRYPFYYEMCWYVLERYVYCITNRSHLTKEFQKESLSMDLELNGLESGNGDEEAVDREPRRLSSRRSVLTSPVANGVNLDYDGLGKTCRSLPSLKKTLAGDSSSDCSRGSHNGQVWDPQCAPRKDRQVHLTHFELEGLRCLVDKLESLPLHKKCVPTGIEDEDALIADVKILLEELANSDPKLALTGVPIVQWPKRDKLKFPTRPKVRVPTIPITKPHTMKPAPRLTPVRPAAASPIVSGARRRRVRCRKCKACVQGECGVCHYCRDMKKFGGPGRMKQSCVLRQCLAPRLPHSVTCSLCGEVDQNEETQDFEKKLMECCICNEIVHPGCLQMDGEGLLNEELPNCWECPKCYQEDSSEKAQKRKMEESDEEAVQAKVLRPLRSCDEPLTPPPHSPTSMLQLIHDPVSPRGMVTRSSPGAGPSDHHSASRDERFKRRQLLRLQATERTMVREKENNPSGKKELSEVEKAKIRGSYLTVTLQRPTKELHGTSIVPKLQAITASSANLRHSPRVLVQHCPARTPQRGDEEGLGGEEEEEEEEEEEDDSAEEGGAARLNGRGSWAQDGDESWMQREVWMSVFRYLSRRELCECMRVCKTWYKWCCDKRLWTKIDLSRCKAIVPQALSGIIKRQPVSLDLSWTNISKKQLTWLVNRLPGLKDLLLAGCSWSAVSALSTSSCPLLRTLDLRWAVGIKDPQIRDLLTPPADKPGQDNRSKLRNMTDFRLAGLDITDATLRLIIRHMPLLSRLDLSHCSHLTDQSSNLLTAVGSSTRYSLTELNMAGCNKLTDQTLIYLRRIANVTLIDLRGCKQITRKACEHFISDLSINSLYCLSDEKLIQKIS
# MM1S cells = assay: Cell-cycle analysis; assay type: cell-based, human
# [3] = Liver microsomes stability; assay type: in vitro ADME; details: human liver microsomes
# H1 (h) = H1 (h) (Homo sapiens, UniProt P35367); assay: Cerep Express Panel, antagonist radioligand; assay type: binding; details: read-out: % Inhibition of reference (10 µM)
# Sequence of H1 (h) (P35367 whole entry): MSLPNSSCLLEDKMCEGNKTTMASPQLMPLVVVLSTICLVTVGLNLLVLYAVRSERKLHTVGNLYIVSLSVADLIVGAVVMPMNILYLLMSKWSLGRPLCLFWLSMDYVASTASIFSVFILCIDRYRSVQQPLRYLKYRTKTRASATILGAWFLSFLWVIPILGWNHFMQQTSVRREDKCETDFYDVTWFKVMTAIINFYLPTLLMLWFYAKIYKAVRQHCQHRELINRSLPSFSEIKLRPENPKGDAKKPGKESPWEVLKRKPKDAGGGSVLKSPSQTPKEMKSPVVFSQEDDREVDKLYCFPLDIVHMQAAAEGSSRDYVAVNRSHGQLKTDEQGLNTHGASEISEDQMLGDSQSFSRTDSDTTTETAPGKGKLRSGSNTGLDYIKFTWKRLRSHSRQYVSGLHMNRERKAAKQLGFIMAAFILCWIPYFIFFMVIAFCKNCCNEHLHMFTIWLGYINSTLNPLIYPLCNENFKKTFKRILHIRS
# NK2 (h) = NK2 (h) (Homo sapiens, UniProt P21452); assay: Cerep Express Panel, agonist radioligand; assay type: binding; details: read-out: % Inhibition of reference (10 µM)
# Sequence of NK2 (h) (P21452 whole entry): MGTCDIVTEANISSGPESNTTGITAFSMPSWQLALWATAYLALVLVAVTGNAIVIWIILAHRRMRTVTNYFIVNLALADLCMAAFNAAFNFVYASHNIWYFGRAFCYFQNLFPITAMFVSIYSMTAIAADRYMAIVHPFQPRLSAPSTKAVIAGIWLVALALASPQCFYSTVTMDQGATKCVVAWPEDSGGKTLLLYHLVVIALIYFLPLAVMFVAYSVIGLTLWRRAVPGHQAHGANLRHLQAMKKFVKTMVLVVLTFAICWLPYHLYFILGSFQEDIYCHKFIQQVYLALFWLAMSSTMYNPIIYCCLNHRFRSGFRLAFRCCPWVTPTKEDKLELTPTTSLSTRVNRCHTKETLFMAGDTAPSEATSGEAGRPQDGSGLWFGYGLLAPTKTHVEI
# [4] = Chemical stability in Phosphate Buffer Saline; assay type: physicochemical; details: PBS, 37°C, 24 hr
# Sequence of H2 (h) (P25021 whole entry): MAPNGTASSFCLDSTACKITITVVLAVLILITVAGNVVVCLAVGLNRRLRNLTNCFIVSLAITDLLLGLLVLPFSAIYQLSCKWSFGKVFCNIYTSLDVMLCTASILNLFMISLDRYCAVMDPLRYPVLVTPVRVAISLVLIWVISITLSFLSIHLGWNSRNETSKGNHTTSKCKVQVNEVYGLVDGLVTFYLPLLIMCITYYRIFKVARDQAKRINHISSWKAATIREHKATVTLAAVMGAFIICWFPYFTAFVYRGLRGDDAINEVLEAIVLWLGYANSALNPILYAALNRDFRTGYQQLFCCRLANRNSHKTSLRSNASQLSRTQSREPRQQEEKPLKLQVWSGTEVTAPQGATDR
structure (smiles),measurement,setting,value
CCN(CCN(C)C)C(=O)CNCc1cc(C(N)=O)ccn1 [KDOAM-25],inhibition at 10 µM,H2 (h),-16%
same,"intrinsic clearance, in words",[1],low intrinsic clearance
same,microsomal CLint,[1]; read-out: RLM Clint,< 1 µL/min/mg
same,IC50,[2],> 100 µM
same,inhibition at 10 µM,MT1 (ML1A) (h),5%
same,inhibition at 10 µM,5-HT1B,-1%
same,inhibition at 10 µM,CB1 (h),-1%
same,inhibition at 10 µM,M2 (h),-3%
same,inhibition at 10 µM,MC4 (h),5%
same,KDM2A IC50,KDM2A,4.4 µM
same,cell-cycle effect,MM1S cells,G1 cell-cycle arrest
same,"intrinsic clearance, in words",[3],low intrinsic clearance
same,microsomal CLint,[3]; read-out: HLM Clint,11.9 µL/min/mg
same,inhibition at 10 µM,H1 (h),1%
same,inhibition at 10 µM,NK2 (h),3%
same,"hydrolysis of the amide, in words",[4],did not show any hydrolysis
